The text below walks through data of ChEMBL document CHEMBL1201862, “PubChem BioAssay data set” (2004).

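A five-concentration, 48-hour dose response in 96-well plates underlies each endpoint, interpolated linearly between surrounding concentrations. Here, GI50 denotes the concentration required for 50% inhibition of growth.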 Activity calls are given as the source filed them. Rule as the data show it: active = GI50 up to about 1.1 µM and inactive = higher.

Test systems include UO-31; NCI-H226; NCI-H23; CAKI-1; EKVX; COLO 205; KM-20L2; SF-539; U-251; HCC 2998; LXFL 529; M14; SNB-78; DMS-114.
What all share (assay): NCI tumour cell line growth inhibition, 48 h

Regarding `CC(SC1=CC(=O)c2c(O)ccc(O)c2C1=O)C(=O)O` (stereo unspecified), the GI50 in the assay on UO-31 is > 47.3 µM (inactive); in the assay with NCI-H226, > 58.5 µM (inactive); with NCI-H23, > 56.4 µM (inactive); in the assay on CAKI-1 it was 27.4 µM (inactive); with EKVX, > 100 µM (inactive); in the assay with COLO 205, 22.5 µM (inactive). For the same molecule, the GI50 was > 51.8 µM (inactive) in the assay on KM-20L2; > 68.5 µM (inactive) in the assay with SF-539; > 42.1 µM (inactive) with U-251; > 73.8 µM (inactive) with HCC 2998; > 35.5 µM (inactive) with LXFL 529; 32.1 µM (inactive) in the assay on M14. Besides, the GI50 with SNB-78 is > 47.4 µM (inactive); with DMS-114, 19.5 µM (inactive).
For the molecule `CCC(C)C(=O)c1c(O)c(C/C=C(\C)CCC=C(C)C)c(O)c2c(C(O)CC)cc(=O)oc12` (stereo unspecified), the GI50 with UO-31 is 2.24 µM (inactive); with NCI-H226, 2.53 µM (inactive); in the assay on NCI-H23 it was 1.56 µM (inactive); with CAKI-1, 2.23 µM (inactive); in the assay on EKVX it was 3.6 µM (inactive); in the assay on COLO 205, 1.71 µM (inactive). In addition, the GI50 is 1.23 µM (inactive) with KM-20L2; 1.67 µM (inactive) with SF-539; 1.51 µM (inactive) in the assay with U-251; 0.358 µM (active) in the assay with HCC 2998; 1.16 µM (inactive) with LXFL 529; 3.31 µM (inactive) with M14. Moreover, the GI50 in the assay with SNB-78 is 3.89 µM (inactive); in the assay with DMS-114 it was 0.498 µM (active).
Take `COC(=O)/C=c1\s/c(=C\C(=O)OC)c2ccccc12`: the GI50 in the assay on UO-31 is 89.1 µM (inactive); in the assay on NCI-H226, 57.8 µM (inactive); in the assay on NCI-H23, > 100 µM (inactive); with CAKI-1 it was > 100 µM (inactive); in the assay with EKVX, > 100 µM (inactive); with COLO 205 it was > 100 µM (inactive). Also, the GI50 with KM-20L2, in the assay with SF-539, with U-251, in the assay on HCC 2998, in the assay with LXFL 529 and in the assay with M14 was > 100 µM (inactive) in each case. The GI50 in the assay with SNB-78 and in the assay with DMS-114 was > 100 µM (inactive) throughout.
Take `COc1ccc2c(c1)c(=O)c1ccccc1n2/C=C/C(=O)O`: the GI50 with UO-31 was > 100 µM (inactive); in the assay with NCI-H226, > 100 µM (inactive); in the assay with NCI-H23, > 100 µM (inactive); in the assay on CAKI-1, > 100 µM (inactive); in the assay with EKVX it was > 100 µM (inactive); in the assay with COLO 205 it was > 56.8 µM (inactive). Also, the GI50 in the assay on KM-20L2 is 26.7 µM (inactive); in the assay with SF-539, > 100 µM (inactive); in the assay with U-251, > 27 µM (inactive); in the assay on HCC 2998, > 100 µM (inactive); in the assay with LXFL 529 it was > 100 µM (inactive); with M14 it was > 100 µM (inactive). Further, the GI50 in the assay with SNB-78 was > 100 µM (inactive); with DMS-114 it was > 83.6 µM (inactive).
